Experiment [1] has as its target T1, two-pore channel 2 (hTPC2) (Homo sapiens, UniProt Q8NHX9).
T1 construct: gene TPCN2; hTPC2-YFP stably expressed in HEK293 cells
In words: endolysosomal patch-clamp, block of PI([…])P2-evoked current. The experiment is classed as biochemical.

Experiment [2] addresses T1, two-pore channel 2 (hTPC2). Nature of the experiment: endolysosomal patch-clamp, single concentration […]. In kind it is cell-based.

T1 sequence (Q8NHX9 whole entry): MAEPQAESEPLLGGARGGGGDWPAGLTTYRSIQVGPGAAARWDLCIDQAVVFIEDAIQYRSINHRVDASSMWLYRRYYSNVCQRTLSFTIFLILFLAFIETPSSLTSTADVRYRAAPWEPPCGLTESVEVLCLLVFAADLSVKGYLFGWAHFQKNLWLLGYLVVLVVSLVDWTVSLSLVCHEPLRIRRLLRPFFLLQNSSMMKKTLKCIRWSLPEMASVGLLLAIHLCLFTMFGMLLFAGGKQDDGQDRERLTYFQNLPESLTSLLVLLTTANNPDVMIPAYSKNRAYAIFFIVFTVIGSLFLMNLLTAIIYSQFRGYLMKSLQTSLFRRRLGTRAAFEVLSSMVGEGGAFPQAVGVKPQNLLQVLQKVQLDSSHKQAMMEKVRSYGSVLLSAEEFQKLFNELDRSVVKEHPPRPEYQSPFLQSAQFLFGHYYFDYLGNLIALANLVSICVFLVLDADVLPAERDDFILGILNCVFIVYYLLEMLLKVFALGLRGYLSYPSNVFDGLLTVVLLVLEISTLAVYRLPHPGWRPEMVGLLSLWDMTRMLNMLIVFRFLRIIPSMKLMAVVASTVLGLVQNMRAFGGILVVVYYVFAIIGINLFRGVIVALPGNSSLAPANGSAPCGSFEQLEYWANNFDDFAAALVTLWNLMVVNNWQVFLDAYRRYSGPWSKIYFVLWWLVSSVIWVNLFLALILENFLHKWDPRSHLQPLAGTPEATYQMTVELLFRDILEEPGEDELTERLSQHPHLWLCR

`O=C1C[C@@H](c2ccc(O)cc2)Oc2cc(O)cc(O)c21` [MT-16, naringenin]: in experiment [1], the 50% inhibitory concentration (IC50) came to 74 ± 9 µM.
Still for that read-out and setting: the figure for `COc1ccc([C@@H]2COc3c(ccc(O)c3OC)C2)c(OC)c1O` [UM-9, duartin] is 9.5 ± 2.8 µM.
On to `O=C1C[C@@H](c2ccccc2)Oc2cc(O)cc(O)c21` [TR-12], for which, in experiment [2], the “endolysosomal patch-clamp, single concentration 10 μM” value was “TR-9 and TR-12 which showed variable effects on melanin generation also proved to be less efficacious inhibitors of hTPC2”.
The molecule `COc1ccc(-c2coc3cc(O)cc(O)c3c2=O)cc1O` [MT-8, pratensein] displayed an IC50 in experiment [1] of 2.6 ± 0.3 µM.
As for `COc1ccc(-c2coc3cc(O)cc(O)c3c2=O)cc1` [TR-9], the “endolysosomal patch-clamp, single concentration 10 μM” value in experiment [2] is “TR-9 and TR-12 which showed variable effects on melanin generation also proved to be less efficacious inhibitors of hTPC2”.
